EPA's ToxRefDB 2

Tests used:
[1] = test system: rat; settings: Sub-acute repeat dose toxicity; sprague dawley; Oral; Water; dose end: 14 day; group: systemic; systemic / in life observation / body weight / body weight + systemic / in life observation / food consumption / food consumption + systemic…
[2] = test system: mouse; settings: Carcinogenicity, b6c3f1, Oral, Water, dose end: 104 week, group: systemic
[3] = test system: rat; settings: Subchronic oral toxicity in rodents, sprague dawley, Water, dose end: 90 day, group: systemic
[4] = test system: rat; settings: Prenatal developmental toxicity study, long evans, Oral, Gavage/Intubation, dose end: 15 GD
[5] = systemic / pathology microscopic / liver / adenoma + systemic / pathology microscopic / liver / adenoma/carcinoma combined + systemic / …
[6] = systemic / pathology microscopic / liver / focal cellular change
[7] = systemic / in life observation / water consumption / water consumption
[8] = systemic / in life observation / water consumption / water consumption + systemic / in life observation / body weight / body weight + …
[9] = group: developmental, developmental / developmental malformation / bone / [other] + developmental / developmental malformation / general / crown-rump length + …
[10] = group: developmental, developmental / developmental malformation / general / crown-rump length + developmental / developmental malformation / all gross anomalies…
[11] = group: maternal, reproductive / reproductive performance / implantations / implantations + reproductive / reproductive performance / postimplantation loss / …
[12] = group: maternal, systemic / organ weight / kidney / absolute + systemic / organ weight / spleen / absolute

With `O=C(O)C(Cl)(Cl)Cl` [Trichloroacetic acid] the LEL [1] was 119 mg/kg/day, the LOAEL [1] was over 119 mg/kg/day and the NEL [1] was 31.6 mg/kg/day. It also gave an NOAEL [1] of at least 119 mg/kg/day, an LOAEL [2, 5] of over 572 mg/kg/day and an NOAEL [2, 5] of at least 572 mg/kg/day. For the same compound, the LEL [2, 6] was 6 mg/kg/day, the NEL [2, 6] was under 6 mg/kg/day and the LEL [3, 7] was 4.1 mg/kg/day. The NEL [3, 7] was under 4.1 mg/kg/day, the LOAEL [3, 8] was over 355 mg/kg/day and the NOAEL [3, 8] was at least 355 mg/kg/day. For the same compound, the LOAEL [4, 9] was over 1800 mg/kg/day, the NOAEL [4, 9] was at least 1800 mg/kg/day and the LEL [4, 10] was 330 mg/kg/day. It also gave an NEL [4, 10] of under 330 mg/kg/day, an LOAEL [4, 11] of over 1800 mg/kg/day and an NOAEL [4, 11] of at least 1800 mg/kg/day. It also gave an LEL [4, 12] of 330 mg/kg/day and an NEL [4, 12] of under 330 mg/kg/day.
